Legend:
Type in all cases: in vivo
[1] = system: Frankliniella occidentalis (Western Flower Thrips); assay: Example B3: Frankliniella occidentalis feeding/contact activity, sunflower leaf discs; settings: foliar, 168 h, application rate of 200 ppm, population of mixed ages, 7 days after infestation
Experimental: Example B3: Frankliniella occidentalis (Western Flower Thrips):Feeding/Contact Activity
Sunflower leaf discs were placed on agar in 24-well microtiter plates and sprayed with aqueous test solutions prepared from […] stock solutions. After drying the leaf discs were infested with a Frankliniella population of mixed ages. The samples were assessed for mortality 7 days after infestation.

[2] = system: Myzus persicae (Green Peach Aphid); assay: Example B8: Myzus persicae intrinsic activity, sucrose solution under Parafilm, 24-well; settings: 120 h, test rate of 12 ppm, 5 days after infestation
From the text: Example B8: Myzus persicae (Green Peach Aphid): Intrinsic Activity
Test compounds prepared from 10′000 ppm DMSO stock solutions were applied by pipette into 24-well microtiter plates and mixed with sucrose solution. The plates were closed with a stretched Parafilm. A plastic stencil with 24 holes was placed onto the plate and infested pea seedlings were placed directly on the Parafilm. The infested plate was closed with a gel blotting paper and another plastic stencil and then turned upside down. The samples were assessed for mortality 5 days after infestation.

[3] = system: Diabrotica balteata (Corn Root Worm); assay: Example B1: Diabrotica balteata, maize sprouts sprayed, L2 larvae; settings: 96 h, application rate of 200 ppm, 4 days after infestation, in comparison to untreated samples, read-out: effect in at least one of the two categories (mortality or growth inhibition)
Experimental: Example B1: Diabrotica balteata (Corn Root Worm)
Maize sprouts placed onto an agar layer in 24-well microtiter plates were treated with aqueous test solutions prepared from 10′000 ppm DMSO stock solutions by spraying. After drying, the plates were infested with L2 larvae (6 to 10 per well). The samples were assessed for mortality and growth inhibition in comparison to untreated samples 4 days after infestation.
The following compounds gave an effect of at least 80% in at least one of the two categories (mortality or growth inhibition) at an application rate of 200 ppm: • P2, P3, P4, P5, P6, P7, P8, P14, P15, P16, P17, P18, P19, P20, P21, P22, P23, P24, P25, P27, P28, P29, P30, P31, P32, P33, P34, P35

[4] = system: Chilo suppressalis (Striped Rice Stemborer); assay: Example B4: Chilo suppressalis, artificial diet, L2 larvae; settings: 144 h, application rate of 200 ppm, 6 days after infestation, in comparison to untreated samples, read-out: control in at least one of the categories (mortality, anti-feedant effect, or growth inhibition)
Experimental: Example B4: Chilo suppressalis (Striped Rice Stemborer)
24-well microtiter plates with artificial diet were treated with aqueous test solutions prepared from 10′000 ppm DMSO stock solutions by pipetting. After drying, the plates were infested with L2 larvae (6-8 per well). The samples were assessed for mortality, anti-feeding effect, and growth inhibition in comparison to untreated samples 6 days after infestation. Control of Chilo suppressalis by a test sample is given when at least one of the categories mortality, anti-feedant effect, and growth inhibition is higher than the untreated sample.

[5] = system: Spodoptera littoralis (Egyptian Cotton Leaf Worm); assay: Example B9: Spodoptera littoralis, cotton leaf discs sprayed, L1 larvae; settings: foliar, 72 h, application rate of 200 ppm, five L1 larvae, 3 days after infestation, in comparison to untreated samples, read-out: control in at least one of the categories (mortality, anti-feedant effect, or growth inhibition)
Experimental: Example B9: Spodoptera littoralis (Egyptian Cotton Leaf Worm)
Cotton leaf discs were placed onto agar in 24-well microtiter plates and sprayed with aqueous test solutions prepared from 10′000 ppm DMSO stock solutions. After drying the leaf discs were infested with five L1 larvae. The samples were assessed for mortality, anti-feeding effect, and growth inhibition in comparison to untreated samples 3 days after infestation. Control of Spodoptera littoralis by a test sample is given when at least one of the categories mortality, anti-feedant effect, and growth inhibition is higher than the untreated sample.

[6] = system: Plutella xylostella (Diamond Back Moth); assay: Example B5: Plutella xylostella, artificial diet in 24-well plates, eggs; settings: 192 h, application rate of 200 ppm, 8 days after infestation, in comparison to untreated samples, read-out: effect in at least one of the two categories (mortality or growth inhibition)
Experimental: Example B5: Plutella xylostella (Diamond Back Moth)
24-well microtiter plates with artificial diet were treated with aqueous test solutions prepared from 10′000 ppm DMSO stock solutions by pipetting. After drying, Plutella eggs were pipetted through a plastic stencil onto a gel blotting paper and the plate was closed with it. The samples were assessed for mortality and growth inhibition in comparison to untreated samples 8 days after infestation.
The following compounds gave an effect of at least 80% in at least one of the two categories (mortality or growth inhibition) at an application rate of 200 ppm: • P1, P2, P3, P4, P5, P7, P8, P9, P14, P15, P16, P17, P18, P21, P22, P23, P24, P25, P27, P28, P29, P30, P31, P32, P33, P34, P35, P36

[7] = system: Euschistus heros (Neotropical Brown Stink Bug); assay: Example B2: Euschistus heros, soybean leaves sprayed, N2 nymphs; settings: 120 h, application rate of 200 ppm, 5 days after infestation, in comparison to untreated samples, read-out: effect in at least one of the two categories (mortality or growth inhibition)
Experimental: Example B2: Euschistus heros (Neotropical Brown Stink Bug)
Soybean leaves on agar in 24-well microtiter plates were sprayed with aqueous test solutions prepared from 10′000 ppm DMSO stock solutions. After drying the leaves were infested with N2 nymphs. The samples were assessed for mortality and growth inhibition in comparison to untreated samples 5 days after infestation.
The following compounds gave an effect of at least 80% in at least one of the two categories (mortality or growth inhibition) at an application rate of 200 ppm: • P1, P2, P3, P7, P11, P12, P16, P17, P18, P22, P25, P29, P32, P33, P37, P38

[8] = system: Myzus persicae (Green Peach Aphid); assay: Example B6: Myzus persicae feeding/contact activity, sunflower leaf discs; settings: foliar, 144 h, application rate of 200 ppm, aphid population of mixed ages, 6 days after infestation
Experimental: Example B6: Myzus persicae (Green Peach Aphid): Feeding/Contact Activity
Sunflower leaf discs were placed onto agar in a 24-well microtiter plate and sprayed with aqueous test solutions prepared from 10′000 ppm DMSO stock solutions. After drying, the leaf discs were infested with an aphid population of mixed ages. The samples were assessed for mortality 6 days after infestation.

[9] = system: Myzus persicae (Green Peach Aphid); assay: Example B13: Myzus persicae, sucrose solution under Parafilm, 96-well; settings: 120 h, application rate of 50 ppm, 5 days after infestation
From the text: Example B13: Myzus persicae (Green Peach Aphid)
Test compounds prepared from 10′000 ppm DMSO stock solutions were applied by a liquid handling robot into 96-well microtiter plates and mixed with a sucrose solution. Parafilm was stretched over the 96-well microtiter plate and a plastic stencil with 96 holes was placed onto the plate. Aphids were sieved into the wells directly onto the Parafilm. The infested plates were closed with a gel blotting card and a second plastic stencil and then turned upside down. The samples were assessed for mortality 5 days after infestation.

[10] = system: Myzus persicae (Green Peach Aphid); assay: Example B7: Myzus persicae systemic activity, pea seedling roots in test solution; settings: 144 h, test rate of 24 ppm, 6 days after placing seedlings into test solutions
Experimental: Example B7: Myzus persicae (Green Peach Aphid): Systemic Activity
Roots of pea seedlings infested with an aphid population of mixed ages were placed directly into aqueous test solutions prepared from 10′000 DMSO stock solutions. The samples were assessed for mortality 6 days after placing seedlings into test solutions.

[11] = system: Plutella xylostella (Diamondback Moth); assay: Example B14: Plutella xylostella, artificial diet in 96-well plates, eggs; settings: 216 h, application rate of 500 ppm, 9 days after infestation
Experimental: Example B14: Plutella xylostella (Diamondback Moth)
96-well microtiter plates containing artificial diet were treated with aqueous test solutions, prepared from 10′000 ppm DMSO stock solutions, by a liquid handling robot. After drying, eggs (˜30 per well) were infested onto a netted lid which was suspended above the diet. The eggs hatch and L1 larvae move down to the diet. The samples were assessed for mortality 9 days after infestation.
The following compounds gave an effect of at least 80% average mortality at an application rate of 500 ppm: • P2, P3, P5, P6, P7, P9, P15, P16, P17, P18, P20, P22, P24, P25, P30, P31, P32, P33, P38.

CC(NC(=O)c1cc(C(F)(F)F)cc(C(F)(F)F)c1)c1nc(OC(F)F)nn1-c1ncccn1 (stereo not shown) [Compound P28, N-[1-[5-(difluoromethoxy)-2-pyrimidin-2-yl-1,2,4-triazol-3-yl]ethyl]-3,5-bis(trifluoromethyl)benzamide]
≥ 80%: mortality at 200 ppm [1] | mortality at 12 ppm [2] | percent effect (mortality or growth inhibition) at 200 ppm [3] | percent control (mortality, anti-feedant effect or growth inhibition) at 200 ppm [4] | percent control (mortality, anti-feedant effect or growth inhibition) at 200 ppm [5] | percent effect (mortality or growth inhibition) at 200 ppm [6]

CC(c1nc(C(=O)N(C)C)nn1-c1ncccn1)N(C)C(=O)c1cc(C(F)(F)F)cc(C(F)(F)F)c1 (stereo not shown) [Compound P11, 5-[1-[[3,5-bis(trifluoromethyl)benzoyl]-methyl-amino]ethyl]-N,N-dimethyl-1-pyrimidin-2-yl-1,2,4-triazole-3-carboxamide]
≥ 80%: mortality at 12 ppm [2] | percent effect (mortality or growth inhibition) at 200 ppm [7] | percent control (mortality, anti-feedant effect or growth inhibition) at 200 ppm [4] | mortality at 200 ppm [8] | mortality at 50 ppm [9]

CC(NC(=O)c1cc(C(F)(F)F)cc(C(F)(F)F)c1)c1nc(-c2ncno2)nn1-c1ncccn1 (stereo not shown) [Compound P1, N-[1-[5-(1,2,4-oxadiazol-5-yl)-2-pyrimidin-2-yl-1,2,4-triazol-3-yl]ethyl]-3,5-bis(trifluoromethyl)benzamide]
≥ 80%: mortality at 200 ppm [1] | percent effect (mortality or growth inhibition) at 200 ppm [7] | percent control (mortality, anti-feedant effect or growth inhibition) at 200 ppm [4] | percent effect (mortality or growth inhibition) at 200 ppm [6]

CC(NC(=O)c1cc(C(F)(F)F)cc(C(F)(F)F)c1)c1nc(OCC(F)F)nn1-c1ncccn1 (stereo not shown) [Compound P29, N-[1-[5-(2,2-difluoroethoxy)-2-pyrimidin-2-yl-1,2,4-triazol-3-yl]ethyl]-3,5-bis(trifluoromethyl) benzamide]
≥ 80%: percent effect (mortality or growth inhibition) at 200 ppm [7] | percent effect (mortality or growth inhibition) at 200 ppm [3] | percent control (mortality, anti-feedant effect or growth inhibition) at 200 ppm [4] | percent control (mortality, anti-feedant effect or growth inhibition) at 200 ppm [5] | percent effect (mortality or growth inhibition) at 200 ppm [6]

COCc1nc(C(C)NC(=O)c2cc(C(F)(F)F)cc(C(F)(F)F)c2)n(-c2ncccn2)n1 (stereo not shown) [Compound P2, N-[1-[5-(methoxymethyl)-2-pyrimidin-2-yl-1,2,4-triazol-3-yl]ethyl]-3,5-bis(trifluoromethyl)benzamide]
≥ 80%: mortality at 12 ppm [2] | percent effect (mortality or growth inhibition) at 200 ppm [7] | percent effect (mortality or growth inhibition) at 200 ppm [3] | percent control (mortality, anti-feedant effect or growth inhibition) at 200 ppm [5] | mortality at 50 ppm [9] | mortality at 24 ppm [10] | mortality at 500 ppm [11] | percent effect (mortality or growth inhibition) at 200 ppm [6]

CC(NC(=O)c1cc(C(F)(F)F)cc(C(F)(F)F)c1)c1nc(OC(F)(F)F)nn1-c1ccccn1 (stereo not shown) [Compound P25, N-[1-[2-(2-pyridyl)-5-(trifluoromethoxy)-1,2,4-triazol-3-yl]ethyl]-3,5-bis(trifluoromethyl) benzamide]
≥ 80%: percent effect (mortality or growth inhibition) at 200 ppm [7] | percent effect (mortality or growth inhibition) at 200 ppm [3] | percent control (mortality, anti-feedant effect or growth inhibition) at 200 ppm [4] | percent control (mortality, anti-feedant effect or growth inhibition) at 200 ppm [5] | mortality at 500 ppm [11] | percent effect (mortality or growth inhibition) at 200 ppm [6]

CC(NC(=O)c1cc(C(F)(F)F)cc(C(F)(F)F)c1)c1nc(Br)nn1-c1ncccn1 (stereo not shown) [Compound P4, N-[1-(5-bromo-2-pyrimidin-2-yl-1,2,4-triazol-3-yl)ethyl]-3,5-bis(trifluoromethyl) benzamide]
≥ 80%: mortality at 200 ppm [1] | mortality at 12 ppm [2] | percent effect (mortality or growth inhibition) at 200 ppm [3] | percent control (mortality, anti-feedant effect or growth inhibition) at 200 ppm [4] | mortality at 200 ppm [8] | percent control (mortality, anti-feedant effect or growth inhibition) at 200 ppm [5] | percent effect (mortality or growth inhibition) at 200 ppm [6]

CC(NC(=O)c1cc(Cl)cc(C(F)(F)F)c1)c1nc(Br)nn1-c1ncccn1 (stereo not shown) [Compound P33, N-[1-(5-bromo-2-pyrimidin-2-yl-1,2,4-triazol-3-yl)ethyl]-3-chloro-5-(trifluoromethyl) benzamide]
≥ 80%: percent effect (mortality or growth inhibition) at 200 ppm [7] | percent effect (mortality or growth inhibition) at 200 ppm [3] | percent control (mortality, anti-feedant effect or growth inhibition) at 200 ppm [4] | percent control (mortality, anti-feedant effect or growth inhibition) at 200 ppm [5] | mortality at 50 ppm [9] | mortality at 500 ppm [11] | percent effect (mortality or growth inhibition) at 200 ppm [6]

CC(NC(=O)c1cc(C(F)(F)F)cc(C(F)(F)F)c1)c1nc(C=O)nn1-c1ncccn1 (stereo not shown) [Compound P38, N-[1-(5-formyl-2-pyrimidin-2-yl-1,2,4-triazol-3-yl)ethyl]-3,5-bis(trifluoromethyl) benzamide]
≥ 80%: mortality at 12 ppm [2] | percent effect (mortality or growth inhibition) at 200 ppm [7] | mortality at 50 ppm [9] | mortality at 500 ppm [11]

Source: patent US12152020B2, “Pesticidally active azole-amide compounds” (SYNGENTA PARTICIPATIONS AG, priority 2018, dated 2024)
